Patent US20050070719A1, “Inhibitors of dipeptidyl peptidase iv” (priority 2001, published 2005)
Where a name gives a salt, the structure may show the parent alone.

target: T1, DPP IV (Rattus norvegicus, UniProt P14740); test: Measuring DPP IV inhibition (rat plasma, fluorogenic peptide substrate); format: biochemical; settings: substrate H-Gly-Pro-alpha methyl coumarin, 30 min, room temp
T1 construct: Add 25 uL of rat plasma or buffer to wells; from tissue; host or cells: rat plasma
Experimental: Dilute 1 volume of rat plasma ([…] with sodium citrate) to 2.5 volumes assay buffer (25 mM HEPES, 140 mM NaCl, 1% BSA [added on the day of the assay]; pH 7.8) to yield approximately 350 micrograms total protein/well in a 96-well plate. […] Dilute the peptide substrate (H-Gly-Pro-alpha methyl coumarin, 10 mM stock in 100% DMSO) 1:100 in assay buffer. Compounds of this invention are diluted in 100% DMSO. Add 10 microliter of diluted compounds or DMSO vehicle to wells. Add 25 uL of rat plasma or buffer to wells. Add 25 uL MgCl2 to all wells. Vortex gently for 1 minute, then pre-incubate at room temp for 10 minutes. Start the reaction by adding 50 uL peptide substrate (no vortexing), and incubate the plate at room temp in the dark for 30 minutes. […] Read the plate at 380 nm (excitation) and 460 nm (emission).

T1 sequence (P14740 37-767 limits assumed): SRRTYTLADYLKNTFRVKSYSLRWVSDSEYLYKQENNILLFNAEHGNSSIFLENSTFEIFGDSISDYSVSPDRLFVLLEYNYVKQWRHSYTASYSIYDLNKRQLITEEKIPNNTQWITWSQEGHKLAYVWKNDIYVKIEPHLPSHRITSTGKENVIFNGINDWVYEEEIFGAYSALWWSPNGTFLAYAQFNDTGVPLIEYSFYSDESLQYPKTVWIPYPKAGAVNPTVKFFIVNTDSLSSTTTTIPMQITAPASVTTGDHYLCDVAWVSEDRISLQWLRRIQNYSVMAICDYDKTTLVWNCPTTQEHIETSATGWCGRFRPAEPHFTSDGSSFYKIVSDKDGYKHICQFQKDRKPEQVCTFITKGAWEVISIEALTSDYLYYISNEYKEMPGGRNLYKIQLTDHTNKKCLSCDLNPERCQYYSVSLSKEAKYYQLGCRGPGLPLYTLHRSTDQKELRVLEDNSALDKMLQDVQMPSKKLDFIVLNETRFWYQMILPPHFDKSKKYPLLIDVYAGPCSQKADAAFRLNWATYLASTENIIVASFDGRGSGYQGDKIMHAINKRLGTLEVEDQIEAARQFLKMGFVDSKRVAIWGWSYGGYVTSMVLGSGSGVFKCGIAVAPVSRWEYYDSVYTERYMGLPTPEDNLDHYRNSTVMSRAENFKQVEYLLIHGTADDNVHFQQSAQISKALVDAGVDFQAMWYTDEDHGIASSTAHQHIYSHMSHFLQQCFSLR

| IC50 [nM] | SMILES |
| --- | --- |
| 60.7 | N#CC1CCCN1C(=O)C1NCC2CC21 (centres unmarked) [Example 2, 1-(3-azabicyclo[3.1.0]hexane-2-carbonyl)pyrrolidine-2-carbonitrile hydrochloride] |
| 1.65 | N#CC1CC(F)CN1C(=O)C1CC2CCCCC2N1 (centres unmarked) [Example 3, 2-cyano-4-fluoro-1-(octahydroindole-2-carbonyl)-pyrrolidine hydrogen chloride] |
| 3.8 | N#CC1CSCN1C(=O)C1CC2CCCCC2N1 (centres unmarked) [Example 5, 3-(octahydroindole-2-carbonyl)thiazolidine4-carbonitrile hydrochloride] |
| 1880 | N[C@H](C(=O)N1CC=CC1)C1CCCCC1 [Example 6, 1-(L-α-cyclohexylglycyl)-3-pyrroline hydrogen chloride] |
| 22200 | N[C@H](C(=O)N1CCCCC1)C1CCCCC1 [Example 8, 1-(L-α-cyclohexylglycyl)piperidine hydrogen chloride] |
| 10000 | O=C(C1CC2CCCCC2N1)N1CCCC1 (centres unmarked) [Example 10, 1-(octahydroindole-2-carbonyl)pyrrolidine hydrochloride] |
| 4820 | O=C(CNC12CC3CC(CC(C3)C1)C2)N1CCSC1 [Example 12, 1-[2-(adamant-1-ylamino)acetyl]-3-thiopyrrolidine] |
| 6.2 | CCC(C)[C@H](N)C(=O)N1CC(F)C[C@H]1C#N (some centres unmarked) [Example 13, 2-cyano-4-fluoro-1-(sec-butyl)glycylpyrrolidine hydrogen chloride] |
| 6.5 | N#C[C@@H]1CC(F)CN1C(=O)C(N)C1CCCCC1 (some centres unmarked) [Example 14, 2-Cyano-4-fluoro-1-cyclohexylglycylpyrrolidine hydrogen chloride] |
| 1200 | N#CC1CCN1C(=O)C(N)C1CCCCC1 (centres unmarked) [Example 16, 1-(2-amino-2-cyclohexyl-acetyl)azetidine-2-carbonitrile] |
| 1100 | N#CC1CCN1C(=O)C1CCCN1 (centres unmarked) [Example 17, 1-(pyrrolidine-2-carbonyl)azetidine-2-carbonitrile] |
| 223 | N#CC1CCN1C(=O)CNC12CC3CC(CC(C3)C1)C2 (centres unmarked) [Example 18, 1-[2-(adamant-1-ylamino)acetyl]-azetidine-2-carbonitrile] |

| SMILES | IC50 [nM] |
| --- | --- |
| Cl.N#CC1CCCN1C(=O)C1CC2CCCCC2N1 (centres unmarked) [Example 1, 1-(octahydroindole-2-carbonyl)pyrrolidine-2-carbonitrile hydrochloride] | 13.9 |
| N#C[C@@H]1CCCN1C(=O)[C@H]1NCC2CCCCC21 (some centres unmarked) [Example 4, 2-(L)-Cyano-(octahydro-isoindolyl)pyrrolidine hydrogen chloride] | 551 |
| Cl.N#CC1CCN1C(=O)C1CC2CCCCC2N1 (centres unmarked) [Example 20, 1-(octahydroindole-2-carbonyl)azetidine-2-carbonitrile hydrochloride] | 178 |

test system: MPTP-lesioned mouse model of Parkinson's disease; test: In vivo reinnervation of the denervated striatum by nigrostriatal dopaminergic fibers (MPTP-lesioned mouse model of Parkinson's disease); settings: CD1 mice, MPTP 34 mg/kg i.p. days 1-5; compound 10 mg/kg s.c. once daily days 1-5; analysis day 7
Description: MPTP (N-methyl-4-phenyl-1,2,3,6-tetrahydropyridine) is a systemically available neurotoxin specific to nigrostriatal dopaminergic neurons, i.e. to the cells that degenerate in human Parkinson's disease. Administration of MPTP to mice leads to a selective partial destruction of the mesotelencephalic dopaminergic projection, and to a loss of dopamine and dopaminergic fibres in the corpus striatum, which is the main forebrain target of midbrain dopaninergic neurons.
Young adult male CD1 albino mice (Harlan-Sprague Dawley; 22-25 g) were dosed i.p. with the dopamine cell-specific neurotoxin N-methyl-4-phenyl-1,2,3,6-tetrahydropyridine (MPTP hydrochloride, calculated as 34 mg/kg free base), dissolved in saline at a concentration of 3.4 mg/ml free base once daily on days one to five. […]
Blinded analysis of TH fiber density in the central striatum was performed at 630× magnification. […] The percentage of sample field covered by TH positive processes and terminals was calculated using an image analysis program (“Simple,” Compix Inc., Pittsburgh, Pa.). The mean striatal innervation density was calculated for each group. The magnitude of striatal deafferentation due to the MPTP lesion was assessed by dividing the observed striatal innervation values obtained in MPTP/vehicle treated cases by the mean striatal innervation density in the Vehicle/Vehicle group and expressed as % loss. […]

| SMILES | % protection of striatal tyrosine hydroxylase-immunoreactive fibres [%] |
| --- | --- |
| Cl.N#CC1CCCN1C(=O)C1CC2CCCCC2N1 (centres unmarked) [Example 1, 1-(octahydroindole-2-carbonyl)pyrrolidine-2-carbonitrile hydrochloride] | 32.5 |
| Cl.N#CC1CCN1C(=O)C1CC2CCCCC2N1 (centres unmarked) [Example 20, 1-(octahydroindole-2-carbonyl)azetidine-2-carbonitrile hydrochloride] | 32.6 |
